Assay results as given in paper PMC6222672, “Pharmacokinetic and Metabolism Studies of 12-Riboside-Pseudoginsengenin DQ by UPLC-MS/MS and UPLC-QTOF-MS^E” (Molecules : A Journal of Synthetic Chemistry and Natural …, 2018).
Entries after “also recorded” stand apart in the source; their conditions may differ. Like-named read-outs stand apart in the source and are kept apart here.

What was measured:
SPC-A-1 cells = experiment: MTT cell viability test, SPC-A-1 cells; format: cell-based; settings: 1-200 μM, 44 h
Excerpt: Antitumor activity test of RPDQ in vitro by using S180, SPC-A-1 and A549 cells
Since the startmaterial for the semi-synthesis of 12-Riboside-pseudoginsengenin DQ (RPDQ) was pseudoginsengenin DQ (PDQ), the antitumor activities of RPDQ […]
and PDQ were both tested.
The SPC-A-1 and S180 tumor cell lines were purchased from Wuhan Procell Life Science & Technology Co,.Ltd. A549 tumor cell lines were purchased from iCell Bioscience Inc (Shanghai) Biological Co., Ltd.
2. Experimental procedure
S180 cells (1 × 10^5 cells/mL) were seeded into a 96-well plate. After 24 h, pretreated with various concentrations of RPDQ or PDQ (1-200 μM) for 44 h at 37℃, and the cells were treated with MTT for 4 h. The formazan crystal product in the cells were dissolved with acid isopropanol. The absorbance was measured at 570 nm with a […]
SPC-A-1/A549 cells(1×10^5 cells/mL) were seeded into a 96-well plate. After 24 h, pretreated with various concentrations of RPDQ or PDQ (1-200 μM) for 44 h at 37℃ , and the cells were treated with MTT for 4 h. […] The absorbance was measured at 490 nm with a […]
Cell viability was calculated by the following formula: Cell viability (%)= 1-{(ODcontrolgroup-ODtreatedgroup)/ODcontrol group×100%}.
All data were processed by statistical software SPSS 17.0. The data were expressed as Mean ± Standard Deviation. The differences between groups were analyzed by one-way analysis of variance. […]

[1] = Pharmacokinetic study of RPDQ in rats after intragastric and intravenous administration (UPLC-MS/MS of plasma); format: in vivo, Wistar rats; settings: for AUC(0-t): read-out: AUC(0–60); for bioavailability: read-out: F (absolute bioavailability)
Experimental: The experiments on animals were approved by the Review Committee of Animal Care and Use of Jilin University. The study was conducted according to the ethical principles for animal use and care. Wistar rats (200 ± 20 g) were provided by Changchun Yisi Laboratory Animal Co. Ltd. (Changchun, China). All rats were housed in an environmentally controlled room (12 h light/dark cycle; temperature: 22 ± 2 °C; relative humidity: 55 ± 5%), and except during fast before experiments, the rats were fed with standard laboratory food and water ad libitum.
In the pharmacokinetic study, the rats were divided into different groups (n = 6, three males and three females): (1) RPDQ (6 mg/kg, i.g.), (2) RPDQ (12 mg/kg, i.g.), (3) RPDQ (24 mg/kg, i.g.), and (4) RPDQ (0.3 mg/kg, i.v.).
From the fossa orbitalis vein, the whole blood (150 μL) was collected at 0.5, 0.75, 1, 2, 3, 4, 6, 9, 10, 12, 18, 24, 48, and 60 h after oral administration, and 0.25, 0.5, 0.75, 1, 1.5, 2, 2.5, 3, 6, 12, and 24 h after intravenous administration. All the blood samples were anticoagulated with sodium heparin. After collection, the whole blood was centrifuged at 4000 rpm and 4 °C for 20 min to obtain plasma.
Plasma samples (being stored at −20 °C before analysis) were thawed and vortexed at room temperature. The mixture of each plasma sample (50 μL) and 20R-panaxadiol solution (100 ng/mL, 500 μL) was vortexed (2 min) and centrifuged (13,000 rpm, 4 °C, 10 min). The clear supernatant was obtained and transferred into vials, and 2 μL of it were then kept in autosampler at 4 °C and injected for analysis.
The analysis of pharmacokinetic was conducted on a Waters ACQUITY UPLC System coupled with a XEVO TQ-S mass spectrometer equipped with an electrospray ionization source (Waters, Milford, MA, USA). Separation was performed on a Waters BEH C18 UPLC column (2.1 × 50 mm, 1.7 μm) at 40 °C. The mobile phase, 0.1% formic aqueous solution (A) and 0.1% formic acid in acetonitrile (B) in proportions, was adjusted with a gradient elution programme (0 min, 40% B; 0~2 min, 40~100% B; 2~2.5 min, 100% B; 2.5~2.6 min, 100~40% B; 2.6~3.5 min, […]). The flow rate was kept constant at 0.3 mL/min. Chromatography of the RPDQ and IS was performed within 3.5 min. The injection volume was 2 μL. The multiple reaction monitoring (MRM) mode was performed in ESI^+. The main parameters were as follows: capillary voltage: 3000 V; source temperature: 150 °C; desolvation temperature: 300 °C; desolvation gas flow: 800 L/h; cone gas flow: 150 L/h; nebulizer gas flow: 7 bar; collision gas flow: 0.15 mL/min; cone voltage: 35 V and 28 V for RPDQ and IS, respectively; collision energy: 10 eV and 6 eV for RPDQ and IS, respectively. Masslynx V4.1 workstation (Waters, Milford, MA, USA) was used for data acquisition and processing.
Samples containing RPDQ above the upper limit of quantification were diluted and re-analyzed. The pharmacokinetics analysis in non-compartmental mode was conducted by Drug and Statistics (DAS) 3.0 pharmacokinetic software programme (Mathematical Pharmacology Professional Committee of China, Shanghai, China). The concentration versus the time curve was plotted. The time to reach the peak concentration (Tmax) and the maximum plasma concentration (Cmax) were obtained after oral administration. The results are shown as the mean ± standard deviation. The absolute bioavailability (F%) was calculated using the equation (AUCp.o. × Dosei.v.)/(AUCi.v. × Dosep.o.) × 100%.

[2] = both sexes, Wistar, rat, plasma, iv, rats, 0.3 mg/kg i.v.
[3] = both sexes, Wistar, rat, plasma, po, rats, 6 mg/kg intragastric
[4] = both sexes, Wistar, rat, plasma, po, rats, 12 mg/kg intragastric
[5] = both sexes, Wistar, rat, plasma, po, rats, 24 mg/kg intragastric

SMILES: CC(C)(O)[C@@H]1CC[C@@](C)([C@H]2CC[C@]3(C)[C@@H]2[C@H](O[C@@H]2O[C@H](CO)[C@@H](O)[C@H]2O)C[C@@H]2[C@@]4(C)CC[C@H](O)C(C)(C)[C@@H]4CC[C@]23C)O1 [RPDQ, 20S, 24S-12-O-β-D-ribofuranosyl-dammar-20, 24-epoxy-3β, 12β, 25-triol]
- anticancer / anti-proliferation effect (SPC-A-1 cells): good anti-proliferation effects; also recorded: significant anticancer activity
- AUC(0-inf) [1, 2]: 8330 ± 270 ng·h/mL
- Tmax [1, 2]: 0.25 h
- half-life [1, 2]: 2.94 ± 0.51 h
- AUC(0-t) [1, 2]: 8300 ± 258 ng·h/mL
- clearance ([1]; both sexes, Wistar, rat, plasma, iv, rats, 0.3 mg/kg i.v., read-out: CLz (converted)): 0.667 mL/min/kg
- Vd ([1]; both sexes, Wistar, rat, plasma, iv, rats, 0.3 mg/kg i.v., read-out: Vz): 11.52 ± 0.02 L/kg
- AUC(0-inf) [1, 3]: 9570 ± 546 ng·h/mL
- Tmax [1, 3]: 7 ± 1.55 h
- half-life [1, 3]: 12.6 ± 1.28 h
- bioavailability ([1]; both sexes, Wistar, rat, plasma, po, rats, 6 mg/kg intragastric vs 0.3 mg/kg i.v.): 5.55%
- AUC(0-t) [1, 3]: 9210 ± 608 ng·h/mL
- AUC(0-inf) [1, 4]: 17700 ng·h/mL
- Tmax [1, 4]: 7.5 ± 1.63 h
- half-life [1, 4]: 12.8 ± 0.56 h
- bioavailability ([1]; both sexes, Wistar, rat, plasma, po, rats, 12 mg/kg intragastric vs 0.3 mg/kg i.v.): 5.15%
- AUC(0-t) [1, 4]: 17100 ng·h/mL
- AUC(0-inf) [1, 5]: 42600 ng·h/mL
- Tmax [1, 5]: 7 ± 1.55 h
- half-life [1, 5]: 13.7 ± 1.11 h
- bioavailability ([1]; both sexes, Wistar, rat, plasma, po, rats, 24 mg/kg intragastric vs 0.3 mg/kg i.v.): 6.08%
- AUC(0-t) [1, 5]: 40400 ng·h/mL
- concentration at 6 h ([1]; both sexes, Wistar, rat plasma sample collected at 6 h after an oral dose of 12 mg/kg): 1000 ng/mL
- CLz ([1]; rats, 6 mg/kg intragastric): 10.5 ± 0.6 mL/min/kg
- Vz ([1]; rats, 6 mg/kg intragastric): 11.45 ± 1.55 L/kg
- CLz ([1]; rats, 12 mg/kg intragastric): 11.3 ± 0.367 mL/min/kg
- Vz ([1]; rats, 12 mg/kg intragastric): 12.53 ± 0.59 L/kg
- CLz ([1]; rats, 24 mg/kg intragastric): 9.5 ± 0.733 mL/min/kg
- Vz ([1]; rats, 24 mg/kg intragastric): 11.28 ± 1.69 L/kg
- time at which RPDQ could still be quantified in plasma ([1]; rats, after gastrointestinal administration): 60 h
